Measured values from patent US20200237731A1, “USE OF CLOXACILLIN TO INHIBIT/PREVENT BIOFILM FORMATION” (priority 2017, published 2020).
Like-named read-outs stand apart in the source and are kept apart here.

Experiments:
[1] = system: clinical strains of Staphylococcus aureus; assay: MIC of cloxacillin by growth (absorbance) in 96-well microplates, Mueller-Hinton medium; assay type: cell-based; conditions: for MIC: Staphylococcus aureus, read-out: MH MIC
Protocol: (§1) The determination of each minimum inhibitory concentration (MIC) of cloxacillin was measured conventionally by measuring the growth of each strain in 96-well microplates in the presence of concentrations of antibiotic by absorbance.
(§2) The MIC was measured in Mueller-Hinton medium (MH; reference medium for antibiotic susceptibility testing) and brain heart infusion (BHI) medium.

[2] = system: clinical strains of Staphylococcus aureus; assay: MIC of cloxacillin by growth (absorbance) in 96-well microplates, brain heart infusion (BHI) medium; assay type: cell-based
Protocol: as §1, §2

[3] = system: Staphylococcus aureus strain S14; assay: Infected skin wound healing model in mice; assay type: in vivo, C57BL/6 mice
Protocol: The objective of these trials was to test the efficacy of cloxacillin, at selected doses, in an in vivo model of mouse skin wound infection with strains of Staphylococcus aureus. The in vivo efficacy of specific doses of cloxacillin, derived from the in vitro MIC and MICb doses, was determined by measuring bacterial load (established as a biofilm) at 12 h, Day 5 and Day 11 post-infection, and by measuring wound healing at Day 5 and Day 11 post-infection (as a wound healing score).
In this example, the mice used were 7-week-old female C57BL/6 mice weighing between 20 and 22 g from Janvier Labs, Le Genest St Isle, 53941 St Berthevin, France. The number of mice used was 5 per condition tested.
The concentration of S. aureus was adjusted in PBS to give a concentration of 10^6 CFU in 10 μL (10^8 CFU/mL). The mice, shaved on their backs, were anaesthetized with isoflurane gas and then 4 incisions were made on each side of the spine, defining 2 areas. In each mouse, only one of the areas was infected by subcutaneous injection of 10 μL of S. aureus solution, with the contralateral area serving as the uninfected control.
To test the effect of cloxacillin, 3 groups of mice received, 30 minutes pre-infection, a “preventive” treatment of 5 mg/kg cloxacillin (for mice subsequently receiving cloxacillin at 3 mg/kg) or 30 mg/kg cloxacillin (for mice subsequently receiving cloxacillin at 15 mg/kg) or sterile saline intraperitoneally. These doses were determined in an in-house PK/PD study.
The mice were then treated every two hours after the first preventive treatment for 10 hours with cloxacillin at 3 mg/kg or 15 mg/kg or saline. These doses were pre-determined to simulate blood levels between the planktonic MIC and the biofilm MIC of strain S14.
Three groups of mice were used, a first group being sacrificed at t+12 h after infection to measure the bacterial load. A second group was treated identically and sacrificed 5 days after infection and a third group, treated identically, was sacrificed 11 days after infection. Each day, a healing score is established on the animals, and on the sacrificed animals, a count of the bacteria installed is made (at D5 and D11). The score is established as follows, assigning a value between 0 and 3.
The skin at the wounds is cut, rinsed in PBS to remove non-adhered bacteria and then the tissue is homogenized in Precellys tubes using glass beads. The resulting homogenate was diluted serially, and different dilutions were spread on TSA media plates and cultured overnight at 37° C. Colonies (CFU) were quantified for each dilution and the bacterial load at the wound site was determined.

[4] = system: Staphylococcus aureus strains S14 and S39; assay: MIC of cloxacillin (medium not stated); assay type: cell-based; conditions: for MIC: Staphylococcus aureus
Protocol: as §1

With `Cc1onc(-c2ccccc2Cl)c1C(=O)N[C@@H]1C(=O)N2[C@@H]1SC(C)(C)[C@@H]2C(=O)O` [cloxacillin] the MIC ([1]; strain S02) was 0.125 µg/mL, the MIC ([1]; strain S04) was 0.25 µg/mL and the MIC ([1]; strain S08) was 0.25 µg/mL. The MIC ([1]; strain S11) was 0.5 µg/mL, the MIC ([1]; strain S14) was 0.25 µg/mL and the MIC ([1]; strain S16) was 0.25 µg/mL. The MIC ([1]; strain S19) was 0.5 µg/mL, the MIC ([1]; strain S21) was 0.25 µg/mL and the MIC ([1]; strain S22) was 0.5 µg/mL. It also gave an MIC ([1]; strain S26) of 0.25 µg/mL, an MIC ([1]; strain S27) of 0.25 µg/mL and an MIC ([1]; strain S31) of 0.25 µg/mL. The MIC ([1]; strain S34) was 0.5 µg/mL, the MIC ([1]; strain S38) was 0.5 µg/mL and the MIC ([1]; strain S39) was 0.5 µg/mL. The MIC ([1]; strain S40) was 0.5 µg/mL, the MIC ([1]; strain S43) was 0.25 µg/mL and the MIC ([1]; strain S44) was 0.25 µg/mL. For the same molecule, the MIC ([1]; strain S46) was 0.25 µg/mL, the MIC ([1]; strain S47) was 0.25 µg/mL and the MIC ([1]; strain S51) was 0.25 µg/mL. It also gave an MIC ([1]; strain S58) of 0.25 µg/mL, an MIC ([1]; strain S62) of 0.25 µg/mL and an MIC ([1]; strain S63) of 0.25 µg/mL. For the same molecule, the MIC ([1]; strain S74) was 0.25 µg/mL, the MIC ([1]; strain S83) was 0.125 µg/mL and the “MH MIC” value ([1]; strain S02) was 0.125 µg/mL. The “MH MIC” value ([1]; strain S38) was 0.5 µg/mL, the “MH MIC” value ([1]; strain S58) was 0.25 µg/mL and the “MH MIC” value ([1]; strain S83) was 0.125 µg/mL. The MIC ([2]; strain S02) was 0.25 µg/mL, the MIC ([2]; strain S04) was 0.5 µg/mL and the MIC ([2]; strain S08) was 0.5 µg/mL. The MIC ([2]; strain S11) was 0.5 µg/mL, the MIC ([2]; strain S14) was 0.25 µg/mL and the MIC ([2]; strain S16) was 0.5 µg/mL. For the same molecule, the MIC ([2]; strain S19) was 0.5 µg/mL, the MIC ([2]; strain S21) was 0.5 µg/mL and the MIC ([2]; strain S22) was 0.5 µg/mL. The MIC ([2]; strain S26) was 0.25 µg/mL, the MIC ([2]; strain S27) was 0.25 µg/mL and the MIC ([2]; strain S31) was 0.5 µg/mL. For the same molecule, the MIC ([2]; strain S34) was 0.5 µg/mL, the MIC ([2]; strain S38) was 0.5 µg/mL and the MIC ([2]; strain S39) was 0.125 µg/mL. The MIC ([2]; strain S40) was 0.5 µg/mL, the MIC ([2]; strain S43) was 0.25 µg/mL and the MIC ([2]; strain S44) was 0.5 µg/mL. For the same molecule, the MIC ([2]; strain S46) was 0.125 µg/mL, the MIC ([2]; strain S47) was 0.25 µg/mL and the MIC ([2]; strain S51) was 0.25 µg/mL. The MIC ([2]; strain S58) was 0.25 µg/mL, the MIC ([2]; strain S62) was 0.5 µg/mL and the MIC ([2]; strain S63) was 0.25 µg/mL. The MIC ([2]; strain S74) was 0.25 µg/mL, the MIC ([2]; strain S83) was 0.125 µg/mL and the wound-healing score ([3]; infected wounds, strain S14, MIC dose (3 mg/kg)) was “absence of cloxacillin effect on wound healing”. For the same molecule, the wound-healing score ([3]; infected wounds, strain S14, MICb dose (15 mg/kg), up to day 6) was “decreases more rapidly”, the “decrease of bacterial load at the wound site vs control” value ([3]; strain S14, MICb dose (15 mg/kg), 12 h post-infection) was ~3 logio and the wound-healing score ([3]; uninfected wounds) was “does not have a per se effect on wound healing”. For the same molecule, the MIC ([4]; strain S14, read-out: minimum inhibitory concentration (MIC)) was 0.25 µg/mL, the MIC ([4]; strain S39, read-out: minimum inhibitory concentration (MIC)) was 0.125 µg/mL and the “minimum inhibitory concentration (MIC)” value ([4]; strain S14) was 0.125 µg/mL. The “minimum inhibitory concentration (MIC)” value ([4]; strain S39) was 0.25 µg/mL.
